Test results from ChEMBL document CHEMBL1201862, “PubChem BioAssay data set” (2004).
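Method: 48-hour compound exposure of cells in 96-well plates, five concentrations, linear interpolation of endpoints. GI50 = concentration required for 50% inhibition of growth.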 Activity calls are given as the source filed them. Rule as the data show it: active = GI50 up to about 1.1 µM and inactive = higher.

How the values were obtained:
Assay in all cases: inhibition of tumour cell growth, NCI panel, 48 h
MDA-MB-435 = system: MDA-MB-435
T47D = system: T47D
NCI-H522 = system: NCI-H522
IGROV-1 = system: IGROV-1
DLD-1 = system: DLD-1
KM-20L2 = system: KM-20L2
OVCAR-8 = system: OVCAR-8
SN12C = system: SN12C
COLO 205 = system: COLO 205
K562 = system: K562
SW-620 = system: SW-620
SK-MEL-5 = system: SK-MEL-5
LXFL 529 = system: LXFL 529
UO-31 = system: UO-31
LOX IMVI = system: LOX IMVI
XF498 = system: XF498
HCC 2998 = system: HCC 2998
SK-MEL-2 = system: SK-MEL-2
SF-268 = system: SF-268
OVCAR-4 = system: OVCAR-4
RXF 393 = system: RXF 393
SNB-78 = system: SNB-78
HOP-62 = system: HOP-62
NCI-H460 = system: NCI-H460
HL-60 = system: HL-60
CAKI-1 = system: CAKI-1
NCI/ADR-RES = system: NCI/ADR-RES
HCT-116 = system: HCT-116
M19-MEL = system: M19-MEL
NCI-H23 = system: NCI-H23
UACC-257 = system: UACC-257
EKVX = system: EKVX
CCRF-CEM = system: CCRF-CEM
NCI-H226 = system: NCI-H226
Malme-3M = system: Malme-3M
HOP-18 = system: HOP-18
BT-549 = system: BT-549
OVCAR-3 = system: OVCAR-3
UACC-62 = system: UACC-62
PC-3 = system: PC-3
SNB-19 = system: SNB-19
SF-539 = system: SF-539
RPMI-8226 = system: RPMI-8226
KM12 = system: KM12
SK-OV-3 = system: SK-OV-3
786-0 = system: 786-0
A498 = system: A498
MOLT-4 = system: MOLT-4
HCT-15 = system: HCT-15
SF-295 = system: SF-295
SNB-75 = system: SNB-75
MDA-N = system: MDA-N
A549 = system: A549
Hs-578T = system: Hs-578T
HT-29 = system: HT-29
RXF 631 = system: RXF 631
DU-145 = system: DU-145
OVCAR-5 = system: OVCAR-5
ACHN = system: ACHN
SK-MEL-28 = system: SK-MEL-28
HOP-92 = system: HOP-92
U-251 = system: U-251
MCF7 = system: MCF7
DMS-273 = system: DMS-273
MDA-MB-231 = system: MDA-MB-231
TK-10 = system: TK-10
M14 = system: M14
DMS-114 = system: DMS-114

Structure (SMILES): CC(=O)OC(C)(C)/C=C/C(=O)[C@](C)(O)[C@H]1[C@H](O)C[C@@]2(C)[C@@H]3CC=C4[C@@H](C=C(O)C(=O)C4(C)C)[C@]3(C)C(=O)C[C@]12C [CUCURBITACIN E]
- GI50 (MDA-MB-435): 0.604 µM (active)
- GI50 (T47D): 0.217 µM (active)
- GI50 (NCI-H522): 0.0407 µM (active)
- GI50 (IGROV-1): 0.0366 µM (active)
- GI50 (DLD-1): 0.0302 µM (active)
- GI50 (KM-20L2): 0.0197 µM (active)
- GI50 (OVCAR-8): 0.166 µM (active)
- GI50 (SN12C): 0.0394 µM (active)
- GI50 (COLO 205): 0.0191 µM (active)
- GI50 (K562): 0.0681 µM (active)
- GI50 (SW-620): 0.0438 µM (active)
- GI50 (SK-MEL-5): 0.0406 µM (active)
- GI50 (LXFL 529): 0.0339 µM (active)
- GI50 (UO-31): 0.0235 µM (active)
- GI50 (LOX IMVI): 0.0101 µM (active)
- GI50 (XF498): 0.0356 µM (active)
- GI50 (HCC 2998): 0.0501 µM (active)
- GI50 (SK-MEL-2): 0.0139 µM (active)
- GI50 (SF-268): 0.0275 µM (active)
- GI50 (OVCAR-4): 0.0305 µM (active)
- GI50 (RXF 393): 0.0177 µM (active)
- GI50 (SNB-78): 0.0914 µM (active)
- GI50 (HOP-62): 0.0408 µM (active)
- GI50 (NCI-H460): 0.0222 µM (active)
- GI50 (HL-60): 0.0313 µM (active)
- GI50 (CAKI-1): 0.0216 µM (active)
- GI50 (NCI/ADR-RES): 0.129 µM (active)
- GI50 (HCT-116): 0.034 µM (active)
- GI50 (M19-MEL): 0.0807 µM (active)
- GI50 (NCI-H23): 0.055 µM (active)
- GI50 (UACC-257): 0.0385 µM (active)
- GI50 (EKVX): 0.118 µM (active)
- GI50 (CCRF-CEM): 0.0298 µM (active)
- GI50 (NCI-H226): 0.0327 µM (active)
- GI50 (Malme-3M): 0.0366 µM (active)
- GI50 (HOP-18): 0.06 µM (active)
- GI50 (BT-549): 0.027 µM (active)
- GI50 (OVCAR-3): 0.0459 µM (active)
- GI50 (UACC-62): 0.065 µM (active)
- GI50 (PC-3): 0.259 µM (active)
- GI50 (SNB-19): 0.057 µM (active)
- GI50 (SF-539): 0.023 µM (active)
- GI50 (RPMI-8226): 0.041 µM (active)
- GI50 (KM12): 0.504 µM (active)
- GI50 (SK-OV-3): 0.0436 µM (active)
- GI50 (786-0): 0.0339 µM (active)
- GI50 (A498): 0.0247 µM (active)
- GI50 (MOLT-4): 0.246 µM (active)
- GI50 (HCT-15): 0.0278 µM
- GI50 (SF-295): 0.0348 µM (active)
- GI50 (SNB-75): 0.0187 µM (active)
- GI50 (MDA-N): 0.0518 µM (active)
- GI50 (A549): 0.0296 µM (active)
- GI50 (Hs-578T): 0.0473 µM (active)
- GI50 (HT-29): 0.0202 µM (active)
- GI50 (RXF 631): 0.0406 µM (active)
- GI50 (DU-145): 0.0262 µM (active)
- GI50 (OVCAR-5): 0.186 µM (active)
- GI50 (ACHN): 0.0179 µM (active)
- GI50 (SK-MEL-28): 0.024 µM (active)
- GI50 (HOP-92): 0.0302 µM (active)
- GI50 (U-251): 0.0203 µM (active)
- GI50 (MCF7): 0.054 µM (active)
- GI50 (DMS-273): 0.0241 µM (active)
- GI50 (MDA-MB-231): 0.0537 µM (active)
- GI50 (TK-10): 0.0479 µM (active)
- GI50 (M14): 0.0375 µM (active)
- GI50 (DMS-114): 0.0715 µM (active)
